Measurements published in US8969320B2, “Hyaluronic acid derivatives containing groups able to release NO” (Fidia Farmaceutici S.P.A., priority 2007, dated 2015).

Experiment: Release Test: nitric oxide (NO) release profile by spectrophotometry (Griess test)
Assay type: physicochemical
Conditions: 4 mg product in 2.5 ml Griess reagent
Description: The nitric oxide (NO) release profile of the compounds of the invention was evaluated by spectrophotometry using the […]. The trend of NO release by the HA-Cys conjugate in S-nitroso form, prepared as described in example 13, is shown here by way of example. Briefly: 4 mg of the product is dissolved in 2.5 ml of Griess reagent in a UV-visible spectrophotometric cuvette. The solution is rapidly homogenised, placed in a double-beam spectrophotometer (Perkin Elmer Lambda 2), and the absorbance trend is measured at 540 nm over time against a blank consisting of Griess solution. The absorbance, i.e. the nitric oxide concentration, increases in the solution with an asymptotic trend, the plateau of which has not yet been reached 25 hrs after release. Assuming first-order kinetics, a decay constant amounting to 70 min^−1 is obtained.

HA-Cys-S-nitric Oxide p50 Derivative (750 kDa) [Example 13]
decay constant of NO release, assuming first-order kinetics (absorbance at 540 nm over time against Griess solution blank): 70 min⁻¹ | time after release at which the plateau of NO concentration (absorbance) has not yet been reached (absorbance at 540 nm, asymptotic trend): > 25 h
